# Measured values as given in US20060188866A1, “Diaminophenothiazine compositions and uses thereof” (Children's Hospital Oakland Research Institute, priority 2005, published 2006).
# Legend:
# IMR90 cells [1] = test: H2O2-induced senescence of methylene blue-treated IMR90 cells; format: cell-based, human; settings: continuous 100 nM; 10 μM H2O2
# Description: In another experiment, the effect of hydrogen peroxide (H2O2) on senescence of methylene blue-treated cells was tested. IMR90 cells were seeded at an initial density of 0.5×10^6/dish and grown for two weeks in the presence of methylene blue prior to H2O2 treatment. Thereafter, cells were harvested weekly, counted, and seeded with or without methylene blue and/or 10 μM H2O2. Cells that were treated with hydrogen peroxide without methylene blue treatment had accelerated senescence. The H2O2-induced senescence was prevented when these cells were continuously treated with 100 nM methylene blue.
# [2] = 65 mg three times a day; cited from earlier work
# mitochondrial complex IV = test: Level of mitochondrial complex IV in IMR90 cells (subunit II antibody, western blotting)
# [3] = 300 mg/day for one year; cited from earlier work
# [4] = rats; injected 1 mg/kg; cited from earlier work
# IMR90 cells [5] = test: Replicative life span of IMR90 cells (population doubling level)
SMILES,H2O2-induced senescence (IMR90 cells [1]),management of chronic renal calculous disease [2],"effect on complex IV (mitochondrial complex IV; 1000 nM, IMR90 cells)",increase in level of complex IV above age-matched controls (mitochondrial complex IV; IMR90 cells),depression compared with 15 mg/day placebo [3],brain oxidative metabolism [4],memory retention [4],increase in PDL (IMR90 cells [5]; IMR90 cells seeded in 5% oxygen),delay of senescence (IMR90 cells [5]; IMR90 cells seeded in air),optimal concentration for delaying senescence (IMR90 cells [5]; IMR90 cells seeded in air) [nM],effect on level of complex IV (mitochondrial complex IV; IMR90 cells after treatment),"effect on senescence (replicative life span) (IMR90 cells [5]; 100 nM, IMR90 cells)"
CN(C)c1ccc2nc3ccc(=[N+](C)C)cc-3sc2c1 [methylene blue],prevented,useful,caused removal of complex IV from the mitochondria,approximately 30%,significantly less depressed,improved,improved,10-15,25-30 population doublings,10 to 100,,
Nc1ccc2nc3ccc(N)cc3[s+]c2c1 [thionine],,,,,,,,,,,increase in complex IV,effective
